Measurements as given in publication PMC4434909, “In vitro properties of designed antimicrobial peptides that exhibit potent antipneumococcal activity and produces synergism in combination with penicillin” (Scientific Reports, 2015).
Where two headings read alike, the source gives them in different places. Where no end group is shown, it is not given here.

Assays:
PRSP, PISP, and PSSP = format: cell-based, Streptococcus pneumoniae
Protocol: (§1) This assay was performed to evaluate the killing kinetics of peptides. One PRSP, PISP, and PSSP isolate were each grown and prepared to 5 × 10^6 CFU/ml. Each isolate in CAMHB was challenged with peptides at two times the respective MIC values. At the indicated time intervals (0, 30, 60, 120, 150, 180, 210, and 240 min; “0” indicate pretreatment), 10 μl of suspension was removed and immediately serially diluted in cold phosphate-buffered saline to arrest further reaction before spread-plated on MHA to obtain viable colony counts. The percentage cell recovered was calculated by dividing the surviving CFU of the treated cells over the surviving CFU of the untreated control cells at the respective time points. Results were pooled from three independent experiments and expressed as mean ± standard deviation (SD).

PSSP = format: cell-based, Streptococcus pneumoniae
Protocol: as §1

PISP = format: cell-based, Streptococcus pneumoniae
Protocol: as §1

PRSP = format: cell-based, Streptococcus pneumoniae
Protocol: as §1

[1] = system: penicillin-intermediate S. pneumoniae (PISP); format: cell-based, Streptococcus pneumoniae; details: for MIC, PISP: MIC range over 20 PISP isolates, CLSI broth microdilution, CAMHB with 5% laked horse blood, 18–24 hrs 37°C 5% CO2, peptides 1.96–250 μg/ml, three independent experiments; for EP %, PISP: effective percentage: proportion of isolates inhibited within the MIC range
Description: (§2) All bacterial strains were obtained from Department of Medical Microbiology, University of Malaya. Clinical isolates were previously obtained from University of Malaya Medical Centre and maintained in the laboratory. Sheep blood agar was used for pneumococcal cultivation purpose. Nutrient agar was used for cultivating E. coli ATCC 25922, S. aureus ATCC 25923, and P. aeruginosa ATCC 15442, Acinetobacter baumanii ATCC 15308, and one clinical isolate for each MRSA, E. cloacae, Citrobacter spp., and K. pneumoniae. For antimicrobial testing, Mueller-Hinton agar (MHA) and cationically-adjusted MHB (CAMHB) were prepared according to the Clinical and Laboratory Standard Institute guidelines. MHA for S. pneumoniae was supplemented with 5% (v/v) defibrinated sheep blood and 5% laked horse blood for CAMHB. All bacterial cultures were stored in multiple vials in brain heart infusion broth supplemented with 10% (v/v) glycerol at −80°C to avoid repeated freeze-thawed cycles on the cells. All freeze-stocked strains were passaged twice prior to experimentation.
(§3) Procedures were performed to determine the MIC of peptides according to the CLSI guidelines[21] against 60 pneumococcal isolates which consisted of 20 isolates each for PRSP, PISP, and PSSP. Strains were grown for 18–24 hrs at 37°C under 5% CO2. Direct suspension of the colonies were made in CAMHB and adjusted to OD625 0.08–0.1 which corresponds to 1 ~ 2 × 10^8 CFU/ml followed by serial ten-fold dilutions to give 1 × 10^6 CFU/ml. Fifty microliters of bacterial suspension was then aliquoted to 96-well round bottom microtiter plates containing equal volume of serially diluted peptides to give final concentrations of peptides encompassing the range of 1.96–250 μg/ml. […] The plates were incubated for 18–24 hrs at 37°C under 5% CO2. MIC was read as the concentration of peptide producing complete inhibition on the visible growth of the test organism. Results were pooled from three independent experiments. MIC range was defined as the range of concentrations where the peptides produce detectable antimicrobial activity. Effective percentage (EP) was the proportion of pneumococcal isolates inhibited within the MIC range. Since the isolates tested were obtained prior to 2008 where major revision in antibiotic susceptibility breakpoints were introduced, thus the pneumococci were defined according to the PEN susceptibility breakpoint (prior 2008) which corresponds to the PEN (oral penicillin V) breakpoint of the revised criteria.

[2] = system: penicillin-susceptible S. pneumoniae (PSSP); format: cell-based, Streptococcus pneumoniae; details: for MIC, PSSP: MIC range over 20 PSSP isolates, CLSI broth microdilution, CAMHB with 5% laked horse blood, 18–24 hrs 37°C 5% CO2, peptides 1.96–250 μg/ml, three independent experiments; for EP %, PSSP: effective percentage: proportion of isolates inhibited within the MIC range
Description: as §2, §3

S. pneumoniae = format: cell-based, Streptococcus pneumoniae; details: for Overall EP: proportion of the 60 pneumococcal isolates inhibited within the MIC range
Description: as §2, §3

A549 cell line = assay: Cytotoxicity against human cell lines (CellTiter 96 AQueous); format: cell-based
Protocol: (§4) Both the NL20 human lung bronchial normal epithelial cell line and the A549 human lung alveolar adenocarcinoma epithelial cell line were used for cell cytotoxicity tests. Besides investigating the cytotoxicity of peptides, differences in cell viability between the two cell lines can be used to evaluate the cell line selectivity and to assess potential anticancer potential of the peptides. NL20 cell line was grown in Ham's F12 medium and A549 cell line was grown in Roswell Park Memorial Institute medium. Both media were supplemented with fetal bovine serum to 10% (v/v) as growth medium or 2% (v/v) as maintenance medium in cell cytotoxicity testing. The assay was performed as described by Lee et al.[26]. NL20 cells was seeded overnight at 3 × 10^4 cells/well in 96-well cell culture-treated flat bottom microtiter plate and treated with serial dilutions of peptide at a final concentration of 1.95–250 μg/ml. PEN was tested from 0.03–4 μg/ml, the same range used to classify the susceptibility of pneumococcal isolates in this study. Test using A549 cells followed the same procedures with 1 × 10^4 cells/well. Plates were incubated at 37°C under 5% CO2 for 24, 48, and 72 hrs. Cell viability was detected by using CellTiter 96® AQueous Non-Radioactive Cell Proliferation assay (Promega, USA) and the colorimetric changes were read with Glomax multidetection system (Promega, USA) at OD 490 nm. Results were pooled from three independent experiments and expressed as mean ± SD. […] Imax was the percentage of cell viable treated with peptides/PEN at the maximum concentration as defined throughout this study (all peptides 250 μg/ml, PEN 4 μg/ml).

NL20 cell line = assay: as above; format: cell-based
Protocol: as §4

[3] = average of PRSP, PISP and PSSP, 30 min post treatment, 2× MIC
[4] = concentration reducing cell viability to 50%, 24 hrs, 2% FBS medium, OD 490 nm, mean ± SD of three independent experiments
[5] = concentration reducing cell viability to 50%, 48 hrs, 2% FBS medium, OD 490 nm, mean ± SD of three independent experiments
[6] = concentration reducing cell viability to 50%, 72 hrs, 2% FBS medium, OD 490 nm, mean ± SD of three independent experiments
[7] = percentage cell viability at the highest concentration (peptides 250 μg/ml; PEN 4 μg/ml), 24 hrs, mean ± SD
[8] = percentage cell viability at the highest concentration (peptides 250 μg/ml; PEN 4 μg/ml), 48 hrs, mean ± SD
[9] = percentage cell viability at the highest concentration (peptides 250 μg/ml; PEN 4 μg/ml), 72 hrs, mean ± SD
[10] = bound stated in text for 24, 48 and 72 hrs together

Substance	difference in killing kinetics over PEN, average (PRSP, PISP, and PSSP; [3]) [%]	difference in killing kinetics over PEN, PSSP (PSSP; 30 min post treatment, 2× MIC) [%]	difference in killing kinetics over PEN, PISP (PISP; 30 min post treatment, 2× MIC) [%]	difference in killing kinetics over PEN, PRSP (PRSP; 30 min post treatment, 2× MIC) [%]	MIC, PISP [1] [µg/mL]	EP %, PISP [1]	MIC, PSSP [2] [µg/mL]	EP %, PSSP [2]	Overall MIC (S. pneumoniae) [µg/mL]	Overall EP (S. pneumoniae) [%]	IC50, A549 cell line, 24 hrs (A549 cell line; [4]) [µg/mL]	IC50, A549 cell line, 48 hrs (A549 cell line; [5]) [µg/mL]	IC50, A549 cell line, 72 hrs (A549 cell line; [6]) [µg/mL]	Imax, A549 cell line, 24 hrs (A549 cell line; [7]) [%]	Imax, A549 cell line, 48 hrs (A549 cell line; [8]) [%]	IC50, NL20 cell line, 24 hrs (NL20 cell line; [4]) [µg/mL]	IC50, NL20 cell line, 48 hrs (NL20 cell line; [5]) [µg/mL]	IC50, NL20 cell line, 72 hrs (NL20 cell line; [6]) [µg/mL]	Imax, NL20 cell line, 24 hrs (NL20 cell line; [7]) [%]	Imax, NL20 cell line, 48 hrs (NL20 cell line; [8]) [%]	other results
GLFDIWKKWRWRR-NH2 [DM4]	42.4	30.5	57.8	39.0	15.63 to 125	(100.0) %	15.63 to 125	(100.0) %	15.63 to 125	100.0	93.3 ± 5.1	103.0 ± 17.5	107.5 ± 16.3	8.5 ± 3.8	8.9 ± 1.4	160.2 ± 11.8	167.3 ± 5.9	205.0 ± 7.0	6.9 ± 6.8	5.9 ± 2.5	IC50 of NL20 cells higher than A549 cells by, 24 hrs (NL20 cell line; difference IC50 NL20 minus IC50 A549, 24 hrs): 66.9 µg/mL; IC50 of NL20 cells higher than A549 cells by, 48 hrs (NL20 cell line; difference IC50 NL20 minus IC50 A549, 48 hrs): 64.3 µg/mL; IC50 of NL20 cells higher than A549 cells by, 72 hrs (NL20 cell line; difference IC50 NL20 minus IC50 A549, 72 hrs): 97.5 µg/mL; Imax, NL20 cell line, 72 hrs (NL20 cell line; [9]): 30.2 ± 2.9%
GLFDIWKWWRWRR-NH2 [DM3]	–	–	–	–	7.81 to 62.5	(100.0) %	7.81 to 62.5	(100.0) %	7.81 to 62.5	100.0	–	–	–	–	–	–	–	–	–	–	difference in killing kinetics over PEN, average (PRSP, PISP, and PSSP; 2): 64.6%; CFU recovered (viability), all three groups of pneumococci (PRSP, PISP, and PSSP; 30 min post treatment, 2× MIC, 5 × 10^6 CFU/ml in CAMHB, plate count, relative to untreated control): < 6.0%; difference in killing kinetics over PEN, PSSP (PSSP; 2): 57.7%; difference in killing kinetics over PEN, PISP (PISP; 2): 76.0%; difference in killing kinetics over PEN, PRSP (PRSP; 2): 60.0%; IC50, A549 cell line, 24 hrs (A549 cell line; 24 h): 56.0 ± 9.3 µg/mL; IC50, A549 cell line, 48 hrs (A549 cell line; 48 h): 80.0 ± 1.7 µg/mL; IC50, A549 cell line, 72 hrs (A549 cell line; 72 h): 96.2 ± 4.4 µg/mL; Imax, NL20 cell line, 24 hrs (NL20 cell line): 13.3 ± 2.1%; Imax, NL20 cell line, 48 hrs (NL20 cell line): 24.0 ± 7.6%; Imax, NL20 cell line, 72 hrs (NL20 cell line): 12.4 ± 4.5%; IC50, NL20 cell line, 24 hrs (NL20 cell line; 24 h): 68.5 ± 11.0 µg/mL; IC50, NL20 cell line, 48 hrs (NL20 cell line; 48 h): 91.5 ± 7.6 µg/mL; IC50, NL20 cell line, 72 hrs (NL20 cell line; 72 h): 112.2 ± 8.8 µg/mL
GLFDKWAWWRWRR-NH2 [DM1]	48.5	38.4	54.2	52.9	31.3 to 125	(100.0) %	62.5 to 250	(100.0) %	31.3 to 250	100.0	215.3 ± 19.7	195.0 ± 25.2	>250	38.6 ± 6.2	39.8 ± 7.7	221.8 ± 7.8	235.7 ± 12.9	242.2 ± 7.3	35.3 ± 6.6	42.2 ± 8.6	IC50 against A549 cell line, over all time points (A549 cell line; [10]): ≥ 195.0 µg/mL; Imax, A549 cell line, 72 hrs (A549 cell line; [9]): 66.2 ± 7.2%; IC50 against NL20 cell line, over all time points (NL20 cell line; [10]): > 220 µg/mL; Imax, NL20 cell line, 72 hrs (NL20 cell line; [9]): 45.9 ± 4.3%
